Measurements published in patent EP1410020B1, “TEST SYSTEM AND METHOD SUITABLE FOR SELECTING TEST MATERIALS AND FORMULATIONS” (PHARES PHARMACEUTICAL RESEARCH N.V., priority 2001, dated 2003).

Assay: Transmembrane screen (TS) for membrane affinity: drug solution added to membrane lipid Test system in 96 well plate, turbidity assessed visually or at 690 nm
Format: physicochemical
Conditions: higher turbidity with VP 805 than VP200 at 10:1 or lower lipid to drug ratios

With `Clc1ccccc1C(c1ccccc1)(c1ccccc1)n1ccnc1` [Clotrimazole] the “relative affinity for VP 200 versus VP 805 (turbidity)” value was “higher affinity for VP 200 than VP 805”.
